From US20260257992A1, “AGONISTS OF SMALL HETERODIMER PARTNER FOR CANCER THERAPY” (THE BOARD OF TRUSTEES OF THE UNIVERSITY OF ILLINOIS, priority 2023, published 2026)

Tests used:
IL1b mRNA = IL1b mRNA reduction in Raw cells; type: cell-based; set-up: key: ✓: using strict cutoffs with respect to DSHN for passing each metric; X: using strict cutoffs with respect to DSHN for passing each metric; conditions: pass/fail with respect to DSHN
From the text: (§1) Development of a more efficacious NR0B2 agonist. While DSHN was a useful proof-of-concept small molecule, macrophages required high doses and chronic exposure for robust influences on subsequent Tregs expansion. […] Therefore, we synthesized several derivatives of DSHN and screened them using a reporter assay which makes use of the endogenous cholesterol homeostatic feedback loop, where FXR activation upregulates NR0B2, which then inhibits LXR and its normal induction of ABCA1. We then followed this screen with several others with stringent cutoffs: effect on endogenous ABCA1 and IL1β expression, reduction of Treg expansion in either macrophage or DC co-cultures, and low cellular toxicity (FIG. 5A, Table 4).

Treg expansion [1] = test: Treg expansion in co-culture with compound-treated splenic CD11C+ dendritic cells; type: cell-based, mouse; set-up: key to Treg expansion Dendritic Cells: ✓: using strict cutoffs with respect to DSHN for passing each metric; X: using strict cutoffs with respect to DSHN for passing each metric; conditions: pass/fail with respect to DSHN
Method: (§2) Preparation of Bone Marrow-Derived Macrophages (BMDMs) and Dendritic Cells. Bone marrow cells were collected from mouse tibia and femur. Cells were passed through 70-micron cell strainer and subsequently cultured 10 mL complete RPMI media supplemented with 20 ng/mL of recombinant murine M-CSF (576406; BioLegend, 315-02 PeproTech). On day 3, additional 5 ml of the complete media was added. On day 7, media was replaced. BMDMs were harvested on day 10 using cell stripper solution for further experiments. Dendritic cells were isolated from the spleens of wildtype, using mouse CD11c UltraPure MicroBeads (130-125-835; Miltenyi Biotec) according to the manufacturer's instructions) and cultured in RPMI medium supplemented with 10% heat-inactivated charcoal-stripped FBS, 50 μM β-mercaptoethanol, 1% sodium pyruvate, 1% nonessential amino acids, % penicillin/streptomycin, and 1% Glutamax.
(§3) In vitro Treg expansion assays. T cells were cultured in RPMI medium supplemented with 10% heat-inactivated charcoal-stripped FBS, 50 μM β-mercaptoethanol (Gibco), 1% sodium pyruvate, 1% nonessential amino acids, % penicillin/streptomycin, and 1% Glutamax (Gibco). Naïve CD4^+ T cells were isolated from the spleens of wildtype and OT-II, using Naive CD4^+ T Cell Isolation Kit (Miltenyi Biotec according to the manufacturer's instructions). T cells were labeled with the vital dye CFSE (BioLegend) or Cell Trace Violet (ThermoFisher) according to the manufacturer's instructions. For wildtype Treg expansion in presence of antigen presenting cells, naïve CD4^+ T cells were co-cultured with APC at indicated ratio in the presence of 0.5 μg/mL (anti-CD3 BioLegend), 0.5 ng/mL TGFβ (BioLegend) and 0.5 ng/ml IL-2 (BioLegend) for 72 hr at 37° C. For OT-II Treg expansion, OTII naïve CD4^+ T cells from OT-II mice were activated by antigen presentation by culturing BMDMs were primed with 10 μg/mL OVA323-339 (Bachem) and 0.5 μg/mL LPS (Sigma). naïve CD4+ T cells from OTII mice were co-cultured with primed APC at indicated ratio for 72 hrs. After 72 hrs of culture, cells were transferred into V-bottom plates (BD), pelleted by centrifugation and incubated with antibody staining mix containing Ghost Dye™ Red 780 viability dye diluted in PBS for 15 minutes at 4° C. Cell surface antigens were stained for 15 minutes at 4° C. with an antibody staining mix containing Ghost Dye™ Red 780 viability dye diluted in PBS. Cells were fixed and permeabilized with BD Cytofix/Cytoperm™ for 20 minutes at 4° C. Antibodies against intracellular antigens were diluted in 1×BD Perm/Wash™ buffer and cells were stained for 30 minutes at 4° C. Cytometry data were acquired on a LSRII, Fortessa, Symphony A1 (Becton Dickinson, NJ). Foxp3 induction was assessed by expression of FOXP3.

ABCA1 mRNA = ABCA1 mRNA reduction in Raw cells; type: cell-based; set-up: key: ✓: using strict cutoffs with respect to DSHN for passing each metric; X: using strict cutoffs with respect to DSHN for passing each metric; conditions: pass/fail with respect to DSHN
From the text: as §1

[2] = Low cellular toxicity screen; type: cell-based; set-up: key: ✓: using strict cutoffs with respect to DSHN for passing each metric; X: using strict cutoffs with respect to DSHN for passing each metric; conditions: pass/fail with respect to DSHN
From the text: as §1
Resazurin cell viability assay. 20,000 cells were seeded into 96 well f-bottom, black plates (Corning Costar) and cell viability was measured using 100 μL resazurin per well at 0.3 mg/mL (Acros Organics). The fluorescence signal was quantified by plate reader (560 nm excitation/590 nm emission) at 2-3 h.

Treg expansion [3] = test: Treg expansion in co-culture with compound-treated BMDMs (macrophages); type: cell-based, mouse; set-up: key to Treg expansion macrophages: ✓: using strict cutoffs with respect to DSHN for passing each metric; X: using strict cutoffs with respect to DSHN for passing each metric; conditions: pass/fail with respect to DSHN
Method: as §2, §3

NR0B2 = target: T1, NR0B2 (Homo sapiens, UniProt Q15466); test: ABCA1 reporter screen to identify NR0B2 agonists (HepG2); type: cell-based; set-up: key: ✓: using strict cutoffs with respect to DSHN for passing each metric; X: using strict cutoffs with respect to DSHN for passing each metric; conditions: HepG2, 50 μM test compound, 1 μM GW3965; pass/fail with respect to DSHN
T1 construct: a reporter assay which makes use of the endogenous cholesterol homeostatic feedback loop; endogenous in cells; host or cells: HepG2
T1 sequence (Q15466 1-257): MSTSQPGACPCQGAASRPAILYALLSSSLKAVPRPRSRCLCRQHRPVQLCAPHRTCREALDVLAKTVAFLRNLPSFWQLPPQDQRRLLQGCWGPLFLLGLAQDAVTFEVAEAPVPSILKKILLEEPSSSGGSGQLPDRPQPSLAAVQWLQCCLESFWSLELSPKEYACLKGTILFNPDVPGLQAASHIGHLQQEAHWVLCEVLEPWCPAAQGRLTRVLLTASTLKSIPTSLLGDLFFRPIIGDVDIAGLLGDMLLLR
From the text: as §1
Screening to identify NR0B2 agonists. HepG2 cells were co-transfected with ABCA1 renilla reporter plasmid and TK-control firefly luciferase vector at 20:1 using Lipofectamine 3000 reagent according to manufacturer's instructions for 24 hrs. Afterwards, 7000 cells were seeded in to 384 well f-bottom, white plates (Greiner Bio-One). Test compounds were added to the plates in a final working volume of 30 μL (for a final concentration of 50 μM) in presence of DMSO or 1 μM GW3965 and incubated for 20-24 hrs at 37° C. Luciferase activity was measured using the Luc-Pair Duo-Luciferase HT Assay kit (GeneCopoeia, Rockville, MD, USA) by adding luciferase substrates sequentially following manufacturer instructions. Luminescence was measured with 2 s integration times in a microplate reader (BioTek Cytation 5), 15 min after adding each substrate. The addition of reagents to the microplates was timed at each step to match the reading time delays and reading sequence of the microplate reader.

| Compound | IL1b mRNA reduction (Raw Cells) (IL1b mRNA) | Treg expansion Dendritic Cells (Treg expansion [1]) | ABCA1 mRNA reduction (Raw Cells) (ABCA1 mRNA) | Low Toxicity [2] | Treg expansion macrophages (Treg expansion [3]) | ABCA1 reporter screen (NR0B2) |
| --- | --- | --- | --- | --- | --- | --- |
| CCNS(=O)(=O)c1ccc2cc(OC)c(C(=O)OC)cc2c1 [Compound 6, Methyl 7-(N-ethylsulfamoyl)-3-methoxy-2-naphthoate] | X | ✓ | X | X | ✓ | ✓ |
| COC(=O)c1cc2cc(S(=O)(=O)N(C)C)ccc2cc1OC [Compound 8, Methyl 7-(N,N-dimethylsulfamoyl)-3-methoxy-2-naphthoate] | X | ✓ | X | ✓ | ✓ | ✓ |
| CCN(CC)S(=O)(=O)c1ccc2cc(O)c(C(=O)OC)cc2c1 [Compound 9, Methyl 7-(N,N-diethylsulfamoyl)-3-hydroxy-2-naphthoate] | ✓ | ✓ | X | ✓ | ✓ | X |
| COC(=O)c1cc2cccc(S(=O)(=O)N(C)C)c2cc1OC [Compound 7, Methyl 5-(N,N-dimethylsulfamoyl)-3-methoxy-2-naphthoate] | ✓ | ✓ | X | ✓ | ✓ | ✓ |
| CCNS(=O)(=O)c1cccc2cc(C(=O)OC)c(OC)cc12 [Compound 5, Methyl 5-(N-ethylsulfamoyl)-3-methoxy-2-naphthoate] | ✓ | ✓ | X | ✓ | ✓ | X |
